metabolised, response vs control in vivo and activity data for 11 compounds are collected here from patent US5773447A, “Compounds for treating disorders of lipid metabolism and their preparation” (Hoechst Aktiengesellschaft, priority 1996, dated 1998).

The nature of data set [1]: Metabolic stability: dealkylation to compound A in in vitro incubations (HPLC). The format is in vitro ADME. Conditions: human, liver 9000 g fraction, 37° C., R1-dealkylated metabolite, read-out: relative content of compound A; for metabolised at 0.5 h: incubation time 0.5 h; for metabolised at 1 h: incubation time 1 h; for metabolised at 2 h: incubation time 2 h; for metabolised at 3 h: incubation time 3 h. The source says: It is known that compounds of formula I where R^1 =alkyl are degraded in the metabolism to compounds of the formula I where R^1 =H (in the following called compound A). Accordingly, the instant inventors sought to investigate the metabolic fate of our inventive compounds. The following experiments, which can be carried out using intact human hepatocytes or liver extracts, are used to investigate the dealkylation tendency of the compounds of the formula I according to the invention in comparison to 4-amino-2-(4,4-dimethyl-2-oxoimidazolidin-1-yl)pyrimidine-5-N-(ethyl)-N-(3-trifluoromethyl-phenyl)carboxamide hydrochloride (compound of Example 2 from EP 0 557 879--in the following called compound B).
Frozen samples of pieces of human liver stored at -78° C. were thawed by introducing them into a 1.1% strength potassium chloride solution at a temperature of 4° C. […] After thawing, the pieces of liver were prepared by standard processes [A. Y. H. Lu, W. Levin; Biochem. Biophys. Res. Comm. 46, 1339-1344 (1972), P. G. Gervasi et al.; Xenobiotica 12/8, 517 (1982)]. The temperature was kept between 0° and 4° C. during the preparation. The 9000 g fractions of ten human livers were mixed in order to exclude interindividual enzyme differences.
The test substances were dissolved in DMSO at a concentration of about 10 mg/ml. Aliquot parts of this solution were added under sterile conditions to the hepatocyte cultures or the 9000 g fractions. The incubations were carried out at 37° C. in an atmosphere having 5% CO2 and >90% atmospheric humidity. […] NADPH and Mg^2+ were added to the 9000 g fractions as cofactors [P. G. Gervasi et al.; Xenobiotica 12/8, 517 (1982)]. All samples were frozen immediately after incubation and stored at below -20° C. until analysis.
For each species and each time, all incubations with hepatocytes and 9000 g fractions were carried out without addition of a test substance. The samples obtained were used as controls in the chromatographic analysis.
For the quantitative determination of compound A, i.e. the R^1 -dealkylated metabolite, in the in vitro incubation mixtures, […] of each mixture was in each case diluted with […] of bovine serum. These samples were analyzed by the following test for the determination of compound B free base and metabolite compound A free base in serum:
Fifty microliters of the prepared solution of an internal standard (10 μg of a compound of the formula I where R^1 =CH3, R^2, R^3 =H and R^4 =CF3 /ml of methanol), 0.1 ml of sodium acetate buffer (0.4M, pH 5.5) and 5 ml of ethyl ether were added to 0.1 ml of serum. The mixture was shaken for 20 min. After centrifuging, 4 ml of the organic phase were transferred, 3 ml of n-hexane were added and the mixture was extracted with 0.5 ml of 1% strength (v/v) aqueous trifluoroacetic acid. The upper organic layer was aspirated off and discarded. The aqueous residue was evaporated at 40° C. for 30 min. in order to remove residues of the organic solvent. 100 μl of the remaining aqueous phase were injected into the HPLC apparatus. HPLC analysis was carried out on a C18 RP column (TosoHaas Semi-Micro TSK gel ODS 80 TS) using a mobile phase of 800 g of water, 270 g of acetonitrile and 1 ml of trifluoroacetic acid. The flow rate was 0.2 ml/min. The quantitative determination of the analytes was carried out by measuring the peak heights with the aid of a UV detector at γ=240 nm. The calibration range was between 50 and 0.05 μg/ml corresponding to 200 to 0.2 μg/ml in the undiluted in vitro sample. The detection limit was 0.05 μg/ml corresponding to 0.2 μg/ml in the undiluted in vitro sample.

Data set [2] concerns LDL receptor mRNA. In words: Stimulation of LDL receptor mRNA expression in rat livers after administration (Northern blot). It counts as in vivo. As to conditions: rat liver, 6 hours after administration, untreated control=100%. The source says: (§1) Using a surrogate system, the present inventors sought to confirm the pharmacological activity of the inventive compounds. Thus, utilizing the human hepatocytoma cell line HepG2, which is recognized on all sides as a model, it was observed that the LDL receptor mRNA levels are increased by the compounds of the formula I (Table I). Even in rat livers, within a few hours the LDL receptor mRNA levels are increased by the compounds of the formula I (Table II). The observed stimulation is in the range from 170 to 350% of the controls (control=100%). Accordingly, an effective amount of an inventive compound can include an amount sufficient to increase CDL receptor levels or reduce plasma lipid levels.
The preparation of the mRNA was carried out according to the method of Chomczynski, P. and Sacchi, N., Anal. Biochem. 162, 156-159 (1987). In organs (such as, for example, liver), the deep-frozen tissue was homogenized on dry ice beforehand in a mortar, and the mRNA was further enriched by means of Oligo dT according to standard methods (cf. Sambrook, J., Fritsch, E. F. and Maniatis, T., Molecular Cloning, second Edition, Cold Spring Harbor (1989); in this collection of methods, there are also descriptions of all further relevant molecular biology standard methods used here). Five to […] of the dissolved mRNA thus obtained were denatured according to standard methods and separated on 1% horizontal agarose gels. The mRNA was transferred to Hybond N membranes (Amersham) by means of capillary blot. The specific hybridization probe used was a partial LDL receptor cDNA clone and the internal standard a plasmid which contained a β-actin gene. Both plasmids were labeled by means of a random primer kit from Amersham up to a specific activity of 5×10^9 cpm/μg. Prehybridization, hybridization and washing of the filters were carried out by standard methods. The filters were then exposed at -70° C. on Cronex 4 films (Dupont) overnight up to 14 days in the presence of an intensifying screen, and the hybridization signals were quantified using a commercial laser densitometer by means of the film-blackening intensity. The quotient of the intensity of the LDL receptor band and of the actin band was then determined as an internal standard to correct yield variations.
Liver tissue was removed and shock-frozen in liquid nitrogen. The mRNA was then isolated as described, and the relative LDL receptor mRNA levels were determined by means of the Northern blot technique. The mRNA levels of untreated control animals were set at 100%, and the stimulation of the LDL receptor mRNA in percent of the control was calculated.

Data set [3] relates to LDL receptor mRNA. In words: Stimulation of LDL receptor mRNA expression in HepG2 cells (Northern blot). It counts as cell-based. As to conditions: Homo sapiens, 2 × 10^-6 M, 16 h incubation, 10% fetal calf serum, LDL receptor/β-actin quotient, control=100%.
Excerpt: as §1
The preparation of the mRNA was carried out according to the method of Chomczynski, P. and Sacchi, N., Anal. Biochem. 162, 156-159 (1987). In organs (such as, for example, liver), the deep-frozen tissue was homogenized on dry ice beforehand in a mortar, and the mRNA was further enriched by means of Oligo dT according to standard methods (cf. Sambrook, J., Fritsch, E. F. and Maniatis, T., Molecular Cloning, second Edition, Cold Spring Harbor (1989); in this collection of methods, there are also descriptions of all further relevant molecular biology standard methods used here). […] The filters were then exposed at -70° C. on Cronex 4 films (Dupont) overnight up to 14 days in the presence of an intensifying screen, and the hybridization signals were quantified using a commercial laser densitometer by means of the film-blackening intensity. The quotient of the intensity of the LDL receptor band and of the actin band was then determined as an internal standard to correct yield variations.
Table I presents the stimulation of the LDL receptor mRNA expression in HepG2 cells by selected compounds of formula I in whole serum (final concentration of the compounds […]) after a 16 h incubation. […] The total mRNA was then prepared, and the relevant LDL receptor mRNA and β-actin mRNA levels were determined by means of the Northern blot technique. […]

Structures can show the parent of a compound that is named as a salt.

For `CCN(C(=O)c1cnc(N2CC(C)(C)NC2=O)nc1N)c1cccc(C(F)(F)F)c1` [Compound B, 4-amino-2-(4,4-dimethyl-2-oxoimidazolidin-1-yl)pyrimidine-5-N-(ethyl)-N-(3-trifluoromethyl-phenyl)carboxamide hydrochloride, reference compound], in data set [1], the metabolised at 0.5 h was 4%, the metabolised at 1 h is 8%, the metabolised at 2 h stood at 10% and the metabolised at 3 h came out at 12%.
In turn, `CC1(C)CN(c2ncc(C(=O)N(CC(F)(F)C(F)(F)C(F)(F)F)c3cccc(C(F)(F)F)c3)c(N)n2)C(=O)N1` [Example 2, 4-Amino-2-(4,4-dimethylimidazolidin-2-on-1-yl)pyrimidine-5-N-(2,2,3,3,4,4,4-heptafluorobutyl)-N-[(3-trifluoromethyl)phenyl]carboxamide hydrochloride] gave a response vs control in vivo at 30 mg/kg in data set [2] of 245%. Also, in data set [1], the metabolised at 0.5 h was less than 2%, the metabolised at 1 h was less than 2%, the metabolised at 2 h was less than 2% and the metabolised at 3 h was less than 2%.
Consider `CC1(C)CN(c2ncc(C(=O)N(CC(F)(F)C(F)(F)F)c3cccc(C(F)(F)F)c3)c(N)n2)C(=O)N1` [Example 3, 4-Amino-2-(4,4-dimethylimidazolidin-2-on-1-yl-pyrimidine-5-N-(2,2,3,3,3-pentafluoropropyl)-N-[(3trifluoromethyl)phenyl]carboxamide hydrochloride], for which the response vs control in vivo at 30 mg/kg in data set [2] amounted to 200%.
The same measure, in the same setting: the same measure for `CC1(C)CN(c2ncc(C(=O)N(CC(F)(F)F)c3ccc(F)c(C(F)(F)F)c3)c(N)n2)C(=O)N1` [Example 6, 4-Amino-2-(4,4-dimethylimidazolidin-2-on-1-yl)pyrimidine-5-N-(2,2,2-trifluoroethyl)-N-[(4-fluoro-3-trifluoromethyl)phenyl]carboxamide]: 216%; for `CC1(C)CN(c2ncc(C(=O)N(CC(F)(F)F)c3ccc(Cl)c(C(F)(F)F)c3)c(N)n2)C(=O)N1` [Example 8, 4-Amino-2-(4,4-dimethylimidazolidin-2-on-1-yl)pyrimidine-5-N-[(4-chloro-3-trifluoromethyl)phenyl]-N-(2,2,2-trifluoroethyl)carboxamide hydrochloride]: 182%.
The same measure, in the same setting: the same measure for `CC1(C)CN(c2ncc(C(=O)N(CC(F)(F)C(F)(F)F)c3ccc(Cl)c(C(F)(F)F)c3)c(N)n2)C(=O)N1` [Example 9, 4-Amino-2-(4,4-dimethylimidazolidin-2-on-1-yl)pyrimidine-5-N-[(4-chloro-3-trifluoromethyl)phenyl]-N-(2,2,3,3,3-pentafluoropropyl)carboxamide]: 193%.
On to `CC1(C)CN(c2ncc(C(=O)N(CC(F)(F)C(F)(F)C(F)(F)F)c3ccc(Cl)c(C(F)(F)F)c3)c(N)n2)C(=O)N1` [Example 10, 4-Amino-2-(4,4-dimethylimidazolidin-2-on-1-yl)pyrimidine-5-N-[(4-chloro-3-trifluoromethyl)phenyl]-N-(2,2,3,3,4,4,4-heptafluorobutyl)carboxamide], for which the activity at 2 µM in data set [3] was determined as 206%.
With `CC1(C)CN(c2ncc(C(=O)N(CC(F)(F)C(F)(F)F)c3cc(C(F)(F)F)ccc3Cl)c(N)n2)C(=O)N1` [Example 11, 4-Amino-2-(4,4-dimethylimidazolidin-2-on-1-yl)pyrimidine-5-N-[(6-chloro-3-trifluoromethyl)phenyl]-N-(2,2,3,3,3-pentafluoropropyl)carboxamide hydrochloride], the activity at 2 µM in data set [3] stood at 290%.
With `CC1(C)CN(c2ncc(C(=O)N(CCF)c3cccc(C(F)(F)F)c3)c(N)n2)C(=O)N1` [Example 12, 4-Amino-2-(4,4-dimethylimidazolidin-2-on-1-yl)pyrimidine-5-[N-(3-trifluoromethylphenyl)-N-(2-fluoroethyl)]carboxamide], in data set [1], the metabolised at 0.5 h was found to be 2%, the metabolised at 1 h is 4%, the metabolised at 2 h stood at 6% and the metabolised at 3 h came out at 9%.
Take `CC1(C)CN(c2ncc(C(=O)N(CC(F)(F)C(F)(F)C(F)(F)F)c3cc(C(F)(F)F)ccc3Cl)c(N)n2)C(=O)N1` [Example 14, 4-Amino-2-(4,4-dimethylimidazolidin-2-on-1-yl)pyrimidine-5-[N-(3-trifluoromethyl-6-chlorophenyl)-N-(2,2,3,3,4,4,4-heptafluorobutyl)]-carboxamide]: the response vs control in vivo at 30 mg/kg in data set [2] was 194%.
On the same count and under the same terms, the figure for `CC1(C)CN(c2ncc(C(=O)N(CC(F)(F)C(F)(F)C(F)(F)F)c3ccc(F)c(C(F)(F)F)c3)c(N)n2)C(=O)N1` [Example 17, 4-Amino-2-(4,4-dimethylimidazolidin-2-on-1-yl)-5-pyrimidine-5-[N-(3-trifluoromethyl-4-fluorophenyl)-N-(2,2,3,3,4,4,4-heptafluorobutyl)]-carboxamide] is 195%.
